From patent US20110028719A1, “SCREENING METHODS FOR AMYLOID BETA MODULATORS” (priority 2006, published 2011)
Structures can show the parent of a compound that is named as a salt.

biological target: immobilized Aβ fibrils (Homo sapiens, UniProt P05067); assay: FAC-MS assay of free Aβ monomer (indicator) binding to immobilized Aβ fibrils in the presence of test compounds; details: not given
Sequence (P05067 672-713 limits assumed): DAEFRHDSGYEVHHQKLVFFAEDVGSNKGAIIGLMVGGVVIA

| Compound | Aβ Shift |
| --- | --- |
| CC1CCC(C(C)C)C(OC(=O)c2ccccc2N)C1 (stereo not shown) | 1 |

same assay, conditions: FAC-MS % shift of breakthrough time of free Aβ1-42 monomer (1 μM) on immobilized Aβ fibrils; compounds 1-10 μM in 20 mM NH4OAc, 1% DMSO; void marker M3

| Compound | % of Shift |
| --- | --- |
| CC(=O)OC1C(OC(=O)C(C)(C)C)C(OC(=O)C(C)(C)C)C(OC(C)=O)C(OC(=O)C(C)(C)C)C1OC(=O)C(C)(C)C (stereo not shown) [Compound 37387004, 2,5-bis(acetoxy)-3,4,6-tris[(2,2-dimethylpropanoyl)oxy]cyclohexyl pivalate] | 4% |
| O[C@H]1[C@H](O)[C@@H](O)[C@H](O)[C@@H](O)[C@H]1O [Myo, myo-inositol, reference compound] | 34% |
| CC(C)(C)C(=O)OC1C(OC(=O)C(C)(C)C)C(OC(=O)C(C)(C)C)C(OC(=O)C(C)(C)C)C(OC(=O)C(C)(C)C)C1OC(=O)C(C)(C)C (stereo not shown) [Compound 37387008, 2,3,4,5,6-pentakis[(2,2-dimethylpropanoyl)oxy]cyclohexyl pivalate] | 4% |
| CC(C)C(=O)OC1C(O)C(OC(=O)C(C)C)C(OC(=O)C(C)C)C(OC(=O)C(C)C)C1OC(=O)C(C)C (stereo not shown) [Compound 37387001, 2-hydroxy-3,4,5,6-tetrakis(isobutyryloxy)cyclohexyl 2-methylpropanoate] | 4% |
| O=P(O)(O)O[C@@H]1C(O)[C@@H](OP(=O)(O)O)[C@@H](O)C(O)[C@H]1O (stereo partly drawn) [Compound I-3139, D-Myo-inositol-2,4-bis-phosphate, reference compound] | 12% |
| O=C(/C=C/c1ccc(O)c(O)c1)O[C@@H]1C[C@](O)(C(=O)O)C[C@@H](O)[C@H]1O [Compound C-3878, Chlorogenic acid, reference compound] | 2% |
| CO[C@H]1[C@H](O)[C@@H](O)[C@@H](O)[C@H](O)[C@@H]1O [D-Pinitol, D-pinitol, reference compound] | 3% |
| O[C@H]1[C@H](O)[C@@H](O)[C@H](O)[C@@H](O)[C@@H]1O [AZD-103, scyllo-inositol, reference compound] | 84% |
| [H]/N=C(/N)N[C@H]1[C@H](O)[C@@H](O)[C@H](O[C@@H]2O[C@@H](C)[C@](O)(C=O)[C@H]2O[C@@H]2O[C@@H](CO)[C@H](O)[C@@H](O)[C@@H]2NC)[C@@H](N/C(N)=N\[H])[C@@H]1O [Compound 56501, Streptomycin sulfate, reference compound] | 1% |

same assay, conditions: FAC-MS % shift of free Aβ monomer breakthrough on immobilized Aβ fibrils in presence of the compound (screen, Table 2)

| Compound | Aβ Shift |
| --- | --- |
| Oc1c(I)cc(Cl)c2cccnc12 | 2 |

same assay, conditions: FAC-MS screen; shift of free Aβ monomer breakthrough on immobilized Aβ fibrils in presence of compound; scale not given

| Compound | Aβ Shift |
| --- | --- |
| Cc1cc(C(=O)NC2CCCC(C)C2C)c2ccccc2n1 (stereo not shown) | 1 |
| O=C(O)C1C2C(=O)OC3C(Cl)C1C1(CC1)C32 (stereo not shown) | 0 |
| CC1CCCC(NC(=O)NC2CCCCC2)C1C (stereo not shown) | 0 |
| CC12CC3CC(C)(C1)CC(C(=O)CCC(=O)O)(C3)C2 | 1 |
| CC1(C)CC2(C)CC(O)(C1)C13CCC(C)(C)CC1(C2)O3 (stereo not shown) | 0 |
| CC1(C)CC2(C)CC3=C([C@H](CO)C(C)(C)C3)C(CO)(C1)C2 (stereo partly shown) | 0 |
| CC1CCCC(NC(=O)c2cc3c(s2)CSC3)C1C (stereo not shown) | 1 |
| O=C1OC2C3CC([C@@H]2I)[C@@H](CO)C13 (stereo partly shown) | 0 |
| CC(C)C(=O)O[C@H]1[C@H](OC(=O)C(C)C)[C@@H](OC(=O)C(C)C)[C@H](OC(=O)C(C)C)[C@@H](OC(=O)C(C)C)[C@H]1OC(=O)C(C)C | 5 |
| CN(C)CCOC(=O)C12CC3(C)CC(C)(CC(C)(C3)C1)C2 | 2 |
| COCCNC(=O)NC12CC3(C)CC(C)(CC(C)(C3)C1)C2 | 1 |
| Cl.NC1C2CC3C1C3C2Cl (stereo not shown) | 1 |
| CC1CCCC(n2cnc3cc(C(=O)O)ccc32)C1C (stereo not shown) | 1 |
| CCN1CCC(NC2CCCC(C)C2C)CC1 (stereo not shown) | 1 |
| CC1CCCC(N2CNC(=S)NC2)C1C (stereo not shown) | 2 |
| CC1CCCC(NC(=O)c2nc[nH]n2)C1C (stereo not shown) | 0 |
| CC1CC(C)(C(=O)O)CCC1(C)C (stereo not shown) | 0 |
| CC1C2CC3(C)CC1(C)CC(C1(C)CC(=O)O1)(C2)C3 (stereo not shown) | 1 |
| CC12CC3(C)CC(C)(C1)CC(NC(=O)N1CCCC1)(C2)C3 | 1 |
| C=CCNC(=O)C12CC3(C)CC(C)(CC(C)(C3)C1)C2 | 1 |
| CC(C)(C)C(=O)O[C@H]1[C@H](OC(=O)C(C)(C)C)[C@@H](OC(=O)C(C)(C)C)[C@H](OC(=O)C(C)(C)C)[C@@H](OC(=O)C(C)(C)C)[C@H]1OC(=O)C(C)(C)C | 4 |
| CC1CCCC(NC(=O)c2n[nH]c(=O)c3ccccc23)C1C (stereo not shown) | 2 |

| Compound | Aβ Shift |
| --- | --- |
| CC1CCC(COC(=O)CN2CCOCC2)C(C)C1 (stereo not shown) | 1 |
| CC1CCCC(NS(=O)(=O)c2cccs2)C1C (stereo not shown) | 1 |
| CC12CC3CC(C)(C1)CC(O)(C3)C2 | 0 |
| Cc1cccc(NC(=O)C23CCC(C)(C(O)C2)C3(C)C)n1 (stereo not shown) | 0 |
| CC1CCCC(NC(=O)c2ccc3snnc3c2)C1C (stereo not shown) | 1 |
| CC12CC3(C)CC(C)(C1)CC(NC(=O)NC(C)(C)C)(C2)C3 | 1 |
| CNC(=O)C12CC3(C)CC(C)(CC(C)(C3)C1)C2 | 1 |
| CC(C)(C)C(=O)O[C@@H]1[C@@H](OC(=O)C(C)(C)C)[C@H](OC(=O)C(C)(C)C)[C@H](O)[C@H](OC(=O)C(C)(C)C)[C@H]1OC(=O)C(C)(C)C | 5 |
| CC(=O)OCC12COC(C)(CC1C)CC2C (stereo not shown) | 1 |
| CC1CCC(O[C@H]2C=CC(=O)O2)C(C(C)C)C1 (stereo partly shown) | 0 |
| CC12CC3CC(C)(C1)CC(C(=O)N1CCOCC1)(C3)C2 | 1 |
| CC(=O)O[C@@H]1[C@@H](OC(=O)C(C)(C)C)[C@H](OC(=O)C(C)(C)C)[C@H](OC(C)=O)[C@H](OC(=O)C(C)(C)C)[C@H]1OC(=O)C(C)(C)C | 4 |
| CC1CCC(COC(=O)CN2CCCCC2)C(C)C1 (stereo not shown) | 1 |
| CC(=O)C1C2CC3C(C2Cl)C31 (stereo not shown) | 1 |
| CC1CC(NC(=O)c2nc[nH]n2)CC(C)(C)C1 (stereo not shown) | 1 |
| COC(=O)C12CC3CC(C)(CC(C)(C3)C1)C2 | 1 |
| CC12CC3CC(C)(C1)CC(c1ccc(O)cc1)(C3)C2 | 2 |
| COC(=O)[C@@H]1C[C@H](O)C[C@H](C(=O)OC)C1 | 1 |
| BrC1CC2OC2CC1Br (stereo not shown) | 0 |
| CC1CCC(C(C)C)C(OC(=O)CSC#N)C1 (stereo not shown) | 1 |
| CC1CCN(CC(O)COC2CC(C)CC(C)(C)C2)CC1 (stereo not shown) | 0 |
| CC1CCC(C(C)C)C(OC(=O)NN)C1 (stereo not shown) | 1 |

| Compound | Aβ Shift |
| --- | --- |
| CC12CC3(C)CC(C)(C1)CC(C1(C)CC(=O)O1)(C2)C3 (stereo not shown) | 0 |
| CC1CCC(C(C)(C)C)C(O)C1 (stereo not shown) | 1 |
| COC1CCC(C(C)=O)C(O)C1 (stereo not shown) | 1 |
| C/C(=N\O)C(=O)OC1CC(C)CCC1C(C)C (stereo not shown) | 1 |
| CC1CCC(C(C)C)C(OCC(O)CNC(C)C)C1 (stereo not shown) | 1 |
| CC1CCCC(N2CNc3nc4ccccc4n3C2)C1C (stereo not shown) | 2 |
| CC1(C)CC(=O)C2=C(C1)CC1(C)CC(C)(C)CC2(C#N)C1 (stereo not shown) | 0 |
| CC(O)C12C3C4C5C1C2C(Br)(C43)C51OCCO1 (stereo not shown) | 0 |
| O=C(O[C@@H]1[C@@H](OC(=O)c2ccccc2)[C@H](OC(=O)c2ccccc2)[C@H](O)[C@H](OC(=O)c2ccccc2)[C@H]1OC(=O)c1ccccc1)c1ccccc1 | 2 |
| CC12CC3CC(O)(C1)CC(C(=O)O)(C3)C2 (stereo not shown) | 1 |
| CCC(=O)OC1CCC(C)CC1C(C)(C)C(C)C (stereo not shown) | 1 |
| CC(=O)NC12CC3(C)CC(C)(CC(C)(C3)C1)C2 | 0 |
| CC1CCC(COC(=O)C[N+]2(C)CCCCC2)C(C)C1 (stereo not shown) | 2 |
| CC1CCC(C(C)C)C(OC(=O)C(O)O)C1 (stereo not shown) | 1 |
| CC12CC3(C)CC(C)(C1)CC(CC(=O)O)(C2)C3 | 1 |
| CC1CC(NN(C)C)C(C#N)(C#N)C(C)C1(C#N)C#N (stereo not shown) | 2 |
| CC1CCN(C(=O)C23CC4CC(C)(CC(C)(C4)C2)C3)CC1 | 1 |
| CC(=O)NC1CC(Cl)CCC1C (stereo not shown) | 1 |
| CC(C)(C)C1CC(C(=O)O)CC(C(=O)O)C1 (stereo not shown) | 0 |
| NC12C3C4C5C1C2C(Br)(C43)C51OCCO1 (stereo not shown) | 0 |
| Cc1nn(CC(=O)NC2CCCC(C)C2C)c2ccccc12 (stereo not shown) | 1 |
| CC1CCC(C(C)C)C(OC(=O)c2ccncc2)C1 (stereo not shown) | 1 |

| Compound | Aβ Shift |
| --- | --- |
| CC[N+](CC)(CC)CCCOC1CC(C)CCC1C(C)C (stereo not shown) | 2 |
| O=C(O)C1C2CC3C(C2Cl)C31 (stereo not shown) | 1 |
| CC12CC3(C)CC(CC(=O)O)(C1)CC(CC(=O)O)(C2)C3 | 1 |
| CC1CCC(C(C)CS)CC1S (stereo not shown) | 1 |
| CC12CC3CC(O)(C1)CC(O)(C3)C2 | 1 |
| CC1CCC(C(C)C)C(OC(=O)CCc2ccccc2)C1 (stereo not shown) | 1 |
| CC12CC3(C)CC(N)(C1)CC(O)(C2)C3 | 1 |
| CC1CCCC(NC(=O)Cc2cn(C)c3ccccc23)C1C (stereo not shown) | 2 |
| COC(=O)C12CC3(C)CC(C)(CC(C)(C3)C1)C2 | 1 |
| CC1CCCC(n2c(=S)[nH]c3ccccc3c2=O)C1C (stereo not shown) | 1 |
| CC12CC3CC(C)(C1)CC(C(Cl)C(=O)O)(C3)C2 (stereo not shown) | 1 |
| CC1CCC(C(C)C)C(OCC(O)CN2CCCCC2)C1 (stereo not shown) | 1 |
| CC12CC3CC(C)(C1)CC(N)(C3)C2 | 2 |
| CC1CCCC(C)C1CO (stereo not shown) | 1 |
| O=C(O)C1C2CC3C(OC(=O)C31)C2Cl (stereo not shown) | 2 |
| Cc1ccc(C(=O)OC2CC(C)CCC2C(C)C)cc1C (stereo not shown) | 2 |
| CCCC1CCC(c2ccc(C(C)=O)cc2)CC1C (stereo not shown) | 1 |
| Cc1cccc(NC(=O)C23CC4CC(C)(CC(C)(C4)C2)C3)c1 | 2 |
| Nc1ncnc2c1ncn2C1CCC(CO)C(O)C1 (stereo not shown) | 1 |
| CC12CC3CC(CO)(C1)CC(c1ccccc1)(C3)C2 (stereo not shown) | 1 |
| CC12CC3CC(C)(C1)CC(CC(=O)NNC(N)=O)(C3)C2 | 2 |

same assay, conditions: increasing concentrations; breakthrough curves shifted to the left (greater % shift); FIG. 3

| Compound | effect of increasing concentrations on free Aβ monomer binding time |
| --- | --- |
| O[C@H]1[C@H](O)[C@@H](O)[C@H](O)[C@@H](O)[C@@H]1O [scyllo-cyclohexanehexyl, scyllo-inositol, reference compound] | dose dependent reduction in the free Aβ monomer binding time |

same assay, conditions: pretreatment of column with 1 to 10 μM; FIG. 5

| Compound | effect of pretreatment of immobilized Aβ aggregates |
| --- | --- |
| O[C@H]1[C@H](O)[C@@H](O)[C@H](O)[C@@H](O)[C@@H]1O [AZD-103, scyllo-inositol, reference compound] | prevents binding and/or breaks down of Aβ fibrils |
